Key:
[1] = cited from earlier work; for accumulation: during multiple dose treatment with tramadol
μ-opiate receptors = μ-opiate receptors (Homo sapiens, UniProt P35372); details: cited from earlier work
pain = details: cited from earlier work
child = details: 4 mg/kg of tramadol to a child; cited from earlier work
[2] = system: neurogenic pain in the distal lower limbs, feet and digits; lower back pain; test: Treatment of patient with severe back pain (Patient 1, case report); details: Patient 1, oral tramadol at doses up to 500 mg per day as needed
[3] = cited from earlier work
[4] = system: neuropathic pain (secondary peripheral distal neuropathy of both feet and legs); test: Treatment of patient suffering from diabetic neuropathy (Patient 2, case report); format: in vivo, human
Method: Patient 2 was a person with a history of untreated diabetes. Secondary peripheral distal neuropathy of both feet and legs was among the patients' clinical complaints. […] The patient gradually self escalated the dosage of aspirin to 10 to 12×325 mg tablets per day. The patient then presented after self treatment for several weeks at the emergency room complaining of gastric pain and blood in the vomitus. […] The patient was stabilized through dietary intervention with antacids and released after several days.

Sequence of μ-opiate receptors (P35372 whole entry): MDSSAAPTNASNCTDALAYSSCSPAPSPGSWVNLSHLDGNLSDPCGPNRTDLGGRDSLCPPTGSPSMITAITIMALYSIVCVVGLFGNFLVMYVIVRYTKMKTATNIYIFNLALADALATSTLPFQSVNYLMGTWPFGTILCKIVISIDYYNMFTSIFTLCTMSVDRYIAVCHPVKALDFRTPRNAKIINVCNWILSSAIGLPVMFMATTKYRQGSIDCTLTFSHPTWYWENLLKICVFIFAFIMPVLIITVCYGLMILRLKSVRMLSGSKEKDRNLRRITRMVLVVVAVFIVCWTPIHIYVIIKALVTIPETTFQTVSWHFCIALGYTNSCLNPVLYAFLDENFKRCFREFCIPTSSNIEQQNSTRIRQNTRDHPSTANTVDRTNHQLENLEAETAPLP

In the case of `COc1cccc(C2(O)CCCCC2CN(C)C)c1` (racemic) [tramadol, (+/−)-trans (RR,SS)-2-[(di-methylamino)methyl]-1-(3-methoxyphenyl)cyclohexanol], the “time to peak serum concentrations” value ([1]; after oral administration) is listed as no more than 2 h, the accumulation [1] is listed as “approximately 2 fold” and the “affinity for μ-opiate receptors, fold less than codeine” value (μ-opiate receptors; relative to codeine) is listed as 10 fold. The “affinity for μ-opiate receptors, fold less than d-propoxyphene” value (μ-opiate receptors; relative to d-propoxyphene) was 100 fold, the “affinity for μ-opiate receptors compared with dextromethorphan” value (μ-opiate receptors; relative to dextromethorphan) was “equivalent to dextromethorphan” and the “affinity for μ-opiate receptors, fold less than morphine” value (μ-opiate receptors; relative to morphine) was 6.000 fold. For the same molecule, the “duration of the analgesic effect” value (pain; after a single oral dose of tramadol 100 mg) was “about 6 hours”, the “adverse effect after inadvertent administration” value (child) was “seizure activity” and the reported pain range [2] was “tolerable”. For the same molecule, the side effects [2] was “no significant side effects”.

For `Cn1c(=O)c2c(ncn2C)n(C)c1=O` [caffeine, 3,7-dihydro-1,3,7-trimethyl-1H-purine-2,6-dione], the “time to maximal plasma concentrations” value ([3]; after oral, rectal or parenteral administration) is listed as no more than 1 h and the half-life in plasma ([3]; in vivo) is listed as 3 to 7 h.

In the case of `CN(C)C[C@H]1CCCC[C@]1(O)c1cccc(O)c1` [M1 derivative, O-desmethyltramadol], the accumulation [1] is listed as “approximately 2 fold” and the “analgesic potency relative to the parent drug” value (pain; relative to tramadol) is listed as “at least twice the analgesic potency of the parent drug”.

For `CC(=O)Oc1ccccc1C(=O)O` [aspirin, acetylsalicylic acid], the “diagnosis after self treatment” value ([4]; Patient 2, 10 to 12×325 mg tablets per day for several weeks) was “gastro-esophageal erosion and hemorrhage” and the “control of neuropathic pain” value ([4]; Patient 2, treatment with aspirin and other NSAIDs) was “only marginally effective”.
